Laboratory results: a melting point compilation (Tetko et al.; mined from patent text by program, amines drawn as free bases though some values may be those of a salt)

Row | SMILES | melting point [°C]
1 | CN(C)c1ccc(F)c(C#N)c1 | 72 to 72.5
2 | CS(=O)c1n[nH]c(-c2cc(C(C)(C)C)c(O)c(C(C)(C)C)c2)n1 (stereo unspecified) | 135 to 145
3 | COC(=O)c1cc(C#N)c2cc(Cc3ccc(F)cc3)cnc2c1O | 178 to 179
4 | O=C1Nc2ccc([N+](=O)[O-])cc2C1(Br)Br | 205
5 | Cc1ccc(CCc2cc3c(s2)-n2c(C)nnc2CN=C3c2ccccc2Cl)cc1 | 160 to 162
6 | CCOC(=O)c1cc(C(=O)c2ccc(C)cc2)n(C)c1C | 98 to 100
7 | CC(C)C(=O)C1(S(=O)(=O)c2ccc(O)cc2)CC1 | 111 to 112
8 | CCCOC1=NS(=O)(=O)N(C)C(Oc2ccc([N+](=O)[O-])cc2)=N1 | 129 to 131
9 | CC(=O)OCCN(CCOC(C)=O)c1ccc(C=CC=Cc2ccc([N+](=O)[O-])cc2)cc1 | 195 to 198
10 | Cc1cc(C2=NOC(c3cc(Cl)cc(Cl)c3)(C(F)(F)F)C2)ccc1C(=O)Nc1cncnc1 (stereo unspecified) | 207 to 211
11 | COC(=O)C(C)(C)Cc1ccc(-c2ccc(CC(C)(C)C(=O)OC)cc2)cc1 | 68 to 70
12 | CC1(CCOc2ccc(/C=C/C(=O)O)c(Oc3ncc(C(F)(F)F)cc3Cl)c2)OCCO1 | 144 to 146
13 | CCn1c(=O)n(O)c(=O)c2cc(F)c(N3CCOCC3)cc21 | 162 to 163
14 | C=CCC(NC(=O)C(CCCCN)NC(=O)Cc1cn(CC=C)c2ccccc12)C(=O)OC (stereo unspecified) | 103 to 106
15 | CC1C(=CC2C(C(=O)O)C2(C)C)C1(F)F (stereo unspecified) | 97.7
16 | COc1cc(C(=O)CCCN2CCC(OC(=O)c3cc(Cl)c(N)c4c3OCC4)C(OC)C2)cc(OC)c1OC (stereo unspecified) | 132
17 | CCCn1cc(Cc2ccc(C(=O)OC)cc2OC)c2cc(C=CCC(=O)N(C)C)ccc21 | 122 to 124
18 | C=C(COc1ccc(C(=O)CCC(=O)OC)cc1)COc1ccc(C(C)=O)c(O)c1CCC | 89 to 90
19 | COC(=O)c1coc(-c2ccc(NS(=O)(=O)c3sc4ccc(Cl)cc4c3C)c(S(C)(=O)=O)c2)n1 | 237 to 239
20 | CCC(CC)NC1=CC(CC(C(=O)OC)C(=O)OC)(Nc2c(C)cc(C)cc2C)NC(C)=C1 (stereo unspecified) | 136 to 138

Row | SMILES | melting point [°C]
21 | CC(C)(C)OC(=O)N[C@]1(C)CC[C@H](CS(=O)(=O)c2ccc(S(C)(=O)=O)cc2)C1(C)C | 200 to 203
22 | Cc1oc(-c2cccc(-c3nc(CCO)c(C)o3)c2)nc1CCO | 134 to 135
23 | O=S1(=O)N=CN(C2CC2)c2cc(F)cc(Cl)c21 | 252 to 255
24 | CCOC(=O)C=Cc1ccc(OC)c(OC)c1 | 53 to 55
25 | O=C(O)c1c(F)c(Cl)c(O)c(Cl)c1F | 102 to 105
26 | Cc1noc(NS(=O)(=O)c2cccs2)c1Br | 125 to 127
27 | Cc1nc(C(C)C)c(Sc2cccc(Cl)c2)[nH]1 | 91 to 94
28 | CCOC(=O)Cc1nc(Cl)c(Cl)s1 | 63
29 | O=Cc1ccc(-c2ccc(O)cc2)c2ccsc12 | 203 to 204
30 | Nc1c(Cl)cc(Cl)c(CCC(=O)O)c1Cl | 145
31 | O=C(O)CCCCC(Cc1ccc(F)cc1)C(=O)O (stereo unspecified) | 80 to 81
32 | CCOC(=O)C(=NC1CCCCC1)c1cccn1C | 35 to 36
33 | CCOC(=O)N1CCN(C2=Nc3cc(Br)ccc3N3CCc4cccc2c43)CC1 | 128 to 131
34 | CCSc1cn(C)cc(-c2cccc(C(F)(F)F)c2)c1=O | 84 to 85
35 | C=C1CC2(C)CC(=O)C(C)(C)C12 (stereo unspecified) | -23 to -20
36 | CCOC(=O)C(=O)NCC(=O)C(C)(C)C | 82 to 85
37 | Cc1ccc(C(C)N(O)C(N)=S)s1 (stereo unspecified) | 155
38 | CS(=O)(=O)c1ccc(C[C@@H](N)[C@H](O)C(=O)C2(C(=O)O)CC2N)cc1 (stereo partly specified) | 256 to 258
39 | CCOc1ccc(C2(C(=O)Oc3ccc(C(=O)NO)cc3)CCCCC2)cc1 | 140 to 143

More lines, now with the values ahead:

Row | melting point [°C] | SMILES
40 | 149 | O=C(c1ccc(F)cc1)c1ccc(-c2ccccc2)cc1
41 | 92 to 93 | CN1CCc2ccccc2C(c2ccccc2)C1(C)C (stereo unspecified)
42 | 175 to 176 | O=C(O)c1cccc(-c2ccc3c(c2)N(Cc2ccc(Cl)cc2Cl)CC3)c1
43 | 96 to 97 | Cc1ccccc1Sc1cccc(CC(=O)O)c1O
44 | 231 to 233 | CC1CC(n2c(NC3CC3)nc3cc(Cl)c(Cl)cc32)C(O)C1O (stereo unspecified)
45 | 136 | COc1ccc(S(=O)(=O)N(Cc2nnnn2C)c2ccc(Cl)cc2Cc2c(F)cccc2F)cc1OC
46 | 140 | COc1ccc(CCN(C)CCCOc2ccc(NC(=O)c3cccc4c(=O)c5ccccc5[nH]c34)cc2)cc1OC
47 | 126 to 128 | Cc1cc(O)ccc1-c1nn(CC(C)C)c2c(F)cccc12
48 | 348 to 352 | NC(=O)c1ccc2nc3sc(-c4ccccc4)cc3c(=O)n2c1
49 | 75 to 80 | COC(=O)C1CC(C#N)(c2ccccc2)CCC1=O (stereo unspecified)
50 | 230 | COC(=O)c1ccccc1NC(=O)N1CCc2cc(S(=O)(=O)N3CCN(c4cccc(Cl)c4)CC3)ccc21
51 | 138 to 140 | O=C1CN(Cc2n[nH]c(=O)[nH]2)[C@@H](c2ccccc2)[C@@H](COCc2cc(C(F)(F)F)cc(C(F)(F)F)c2)N1
52 | 86 to 87 | COc1cc(F)ccc1OCC#Cc1ccc(Cl)nc1
53 | 195 to 198 | O=S1(=O)Cc2ccc(Cl)cc2C(c2ccc(F)cc2)=NN1
54 | 118 to 120 | Clc1ccc(CC(OC2CCCC(Cn3ccnc3)O2)c2ccccc2)c(Cl)c1 (stereo unspecified)
55 | 134 to 135 | CCOC(=O)c1cn(Cc2ccccc2)nc1OCc1ccc(OCc2nc(-c3ccco3)oc2C)c(O)c1

Row | melting point [°C] | SMILES
56 | 118 to 119 | N#Cc1cc(-c2cccc(Cl)c2)ccc1N
57 | 90 to 95 | O[C@H](COc1cccc2[nH]ccc12)CN1CCC(c2c[nH]c3cc(Cl)ccc23)CC1
58 | 55 to 58 | Cc1cccc(C(=O)c2ccc(Cl)cc2)c1O
59 | 181 | COc1ccc(S(=O)(=O)N2C(=O)C(O[Si](C)(C)C)(c3ccccc3OC(F)(F)F)c3cc(Cl)ccc32)c(OC)c1 (stereo unspecified)
60 | 48 to 51 | CC(=O)OCCN(C)CC#CC1=Cc2ccccc2Sc2ccc(Cl)cc21
61 | 196 to 198 | CC(C)Cn1c(CC(C)O)nc2c(N)nc3ccccc3c21 (stereo unspecified)
62 | 185 to 187 | Cn1cc(C2=C(c3cn(CCCO)c4ccccc34)C(=O)NC2=O)c2ccccc21
63 | 199 to 201 | Cc1c(-c2ccncc2)[nH]c(-c2ccncc2)c1C(=O)CC(C)C
64 | 148 to 149 | O=C(C1CCN(c2ccncc2)CC1)N1CCN(Cc2ccc(Br)cc2)CC1
65 | 176 to 179 | COc1ccccc1Sc1ccc2c(c1)CC[C@H]1NC(=O)CC[C@]21C
66 | 161 to 167 | O=C(/C=C/c1ccn(S(=O)(=O)c2ccc(-n3cccn3)cc2)c1)NO
67 | 143 to 144 | Cc1oc(-c2ccccc2)nc1COc1ccc(OCc2oc(-c3ccccc3)nc2CO)cc1
68 | 244 | COc1ccc(-c2cc(C(F)(F)F)n3ncc(-c4ccncc4)c3n2)cc1
69 | 107 to 108 | CSc1ncccc1NC(=O)CCCCCCCCSc1nc2ccccc2s1
70 | 77 | CCCCCCCNC(=O)Nc1cccc(N(C)C)c1C(=O)NC1CCN(C(c2ccccc2)c2ccccc2)CC1
71 | 116 | CC1(C)C=C(c2cccnc2)c2cc(Br)ccc2OC1
